Calls of active or inactive are those of the source. The rule behind the calls is not given here.

The subject of this experiment is Osteoblast. As to the kind of experiment: Osteoblast activity in neonatal rat calvarie-derived primary osteoblasts assessed as [3H]thymidine incorporation at 10^-10 to 10^-8 M by beta counting. The experiment is classed as functional, cell-based. A general note: Uptake of a labelled nucleoside into DNA is a usual measure of proliferation.
Turning to `C[C@H](NC(=O)[C@@H]1CCCCNC(=O)OCC=CCOC(=O)NCCCC[C@H](NC(=O)[C@@H](N)CCCCN)C(=O)N[C@@H](CC(N)=O)C(=O)N[C@@H]([C@@H](C)O)C(=O)N[C@@H](C)C(=O)N[C@@H]([C@@H](C)O)C(=O)N1)C(N)=O` (mixture of isomers; 5a), the result was Active.

For `C[C@H](NC(=O)[C@@H]1CC=CC[C@H](NC(=O)[C@@H](N)CCCCN)C(=O)N[C@@H](CC(N)=O)C(=O)N2CCC[C@H]2C(=O)N[C@@H](C)C(=O)N[C@@H]([C@@H](C)O)C(=O)N1)C(N)=O` (mixture of isomers; 2a), the outcome was inactive. As to `C[C@H](NC(=O)[C@@H]1CCCCNC(=O)OCC=CCOC(=O)NCCCC[C@H](NC(=O)[C@@H](N)CCCCN)C(=O)N[C@@H](CC(N)=O)C(=O)N[C@@H]([C@@H](C)O)C(=O)N[C@@H](C)C(=O)N[C@@H]([C@@H](C)O)C(=O)N1)C(N)=O` (mixture of isomers; 5b), the outcome was Active. `C[C@H](NC(=O)[C@@H]1CC=CC[C@H](NC(=O)[C@@H](N)CCCCN)C(=O)N[C@@H](CC(N)=O)C(=O)N2CCC[C@H]2C(=O)N[C@@H](C)C(=O)N[C@@H]([C@@H](C)O)C(=O)N1)C(N)=O` (mixture of isomers; 2b): the result was inactive.

Consider `C[C@H](NC(=O)[C@@H]1CC=CC[C@H](NC(=O)[C@@H](N)CCCCN)C(=O)N[C@@H](CC(N)=O)C(=O)N[C@@H]([C@@H](C)O)C(=O)N[C@@H](C)C(=O)N[C@@H]([C@@H](C)O)C(=O)N1)C(N)=O` (mixture of isomers), for which the result was Active.

(Values after ChEMBL document CHEMBL2146373, “How to blast osteoblasts? Novel dicarba analogues of amylin-(1-8) to treat osteoporosis” (Bioorg Med Chem, 2012).)
